# Results taken from PubChem BioAssay (NCI).
#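 Assay format: 96-well plates, 48-hour exposure. GI50 marks 50% less growth. TGI: total growth inhibition.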
# Key:
# Test in all cases: DTP human tumour cell line panel, 48 h
# ACHN renal = test system: ACHN renal
# K-562 leukemia = test system: K-562 leukemia
# MALME-3M melanoma = test system: MALME-3M melanoma
# UACC-257 melanoma = test system: UACC-257 melanoma
# OVCAR-5 ovarian = test system: OVCAR-5 ovarian
# HL-60(TB) leukemia = test system: HL-60(TB) leukemia
# MCF7 breast = test system: MCF7 breast
# OVCAR-4 ovarian = test system: OVCAR-4 ovarian
# TK-10 renal = test system: TK-10 renal
# SNB-75 CNS = test system: SNB-75 CNS
# HOP-62 NSCLC = test system: HOP-62 NSCLC
# HOP-92 NSCLC = test system: HOP-92 NSCLC
# MDA-MB-435 = test system: MDA-MB-435
# M14 melanoma = test system: M14 melanoma
# NCI-H460 lung = test system: NCI-H460 lung
# SK-MEL-5 melanoma = test system: SK-MEL-5 melanoma
# RPMI-8226 leukemia = test system: RPMI-8226 leukemia
# SF-295 CNS = test system: SF-295 CNS
# LOX IMVI melanoma = test system: LOX IMVI melanoma
# MOLT-4 leukemia = test system: MOLT-4 leukemia
# HCC-2998 colon = test system: HCC-2998 colon
# T-47D breast = test system: T-47D breast
# CAKI-1 renal = test system: CAKI-1 renal
# MDA-MB-231 breast = test system: MDA-MB-231 breast
# 786-0 renal = test system: 786-0 renal
# RXF 393 renal = test system: RXF 393 renal
# DU-145 prostate = test system: DU-145 prostate
# COLO 205 colon = test system: COLO 205 colon
# SN12C renal = test system: SN12C renal
# HT29 colon = test system: HT29 colon
# SK-OV-3 ovarian = test system: SK-OV-3 ovarian
# NCI/ADR-RES ovarian = test system: NCI/ADR-RES ovarian
# SF-268 CNS = test system: SF-268 CNS
# OVCAR-8 ovarian = test system: OVCAR-8 ovarian
# UACC-62 melanoma = test system: UACC-62 melanoma
# BT-549 breast = test system: BT-549 breast
# SNB-19 CNS = test system: SNB-19 CNS
# KM12 colon = test system: KM12 colon
# SR leukemia = test system: SR leukemia
# PC-3 prostate = test system: PC-3 prostate
# CCRF-CEM leukemia = test system: CCRF-CEM leukemia
# OVCAR-3 ovarian = test system: OVCAR-3 ovarian
# UO-31 renal = test system: UO-31 renal
# A498 renal = test system: A498 renal
# NCI-H226 lung = test system: NCI-H226 lung
# HCT-15 colon = test system: HCT-15 colon
# IGROV1 ovarian = test system: IGROV1 ovarian
# SK-MEL-28 melanoma = test system: SK-MEL-28 melanoma
# HCT-116 colon = test system: HCT-116 colon
# A549 NSCLC = test system: A549 NSCLC
# U251 CNS = test system: U251 CNS
# NCI-H23 lung = test system: NCI-H23 lung
# SW-620 colon = test system: SW-620 colon
# SF-539 CNS = test system: SF-539 CNS
# SK-MEL-2 melanoma = test system: SK-MEL-2 melanoma
# NCI-H522 lung = test system: NCI-H522 lung
# HS 578T breast = test system: HS 578T breast
structure (smiles),measurement,setting,value
COc1ccc(-c2nc3sc(-c4cc(OC)c(OC)c(OC)c4)nn3c2/C=C2/C(=O)Nc3ccc(F)cc32)cc1,GI50,ACHN renal,3.29 µM
same,TGI,ACHN renal,15.3 µM
same,GI50,K-562 leukemia,13.1 µM
same,TGI,K-562 leukemia,> 100 µM
same,GI50,MALME-3M melanoma,9.15 µM
same,TGI,MALME-3M melanoma,29.9 µM
same,GI50,UACC-257 melanoma,3.35 µM
same,TGI,UACC-257 melanoma,11.3 µM
same,GI50,OVCAR-5 ovarian,6.14 µM
same,TGI,OVCAR-5 ovarian,21.7 µM
same,GI50,HL-60(TB) leukemia,2.17 µM
same,TGI,HL-60(TB) leukemia,70.3 µM
same,GI50,MCF7 breast,1.66 µM
same,TGI,MCF7 breast,6.32 µM
same,GI50,OVCAR-4 ovarian,1.77 µM
same,TGI,OVCAR-4 ovarian,4.51 µM
same,GI50,TK-10 renal,2.26 µM
same,TGI,TK-10 renal,4.23 µM
same,GI50,SNB-75 CNS,10.3 µM
same,TGI,SNB-75 CNS,22.6 µM
same,GI50,HOP-62 NSCLC,1.94 µM
same,TGI,HOP-62 NSCLC,4.74 µM
same,GI50,HOP-92 NSCLC,2.02 µM
same,TGI,HOP-92 NSCLC,9.48 µM
same,GI50,MDA-MB-435,3.39 µM
same,TGI,MDA-MB-435,14 µM
same,GI50,M14 melanoma,5.51 µM
same,TGI,M14 melanoma,28.1 µM
same,GI50,NCI-H460 lung,3.42 µM
same,TGI,NCI-H460 lung,15.3 µM
same,GI50,SK-MEL-5 melanoma,1.64 µM
same,TGI,SK-MEL-5 melanoma,3.65 µM
same,GI50,RPMI-8226 leukemia,11.3 µM
same,TGI,RPMI-8226 leukemia,64.6 µM
same,GI50,SF-295 CNS,3 µM
same,TGI,SF-295 CNS,10.8 µM
same,GI50,LOX IMVI melanoma,6.88 µM
same,TGI,LOX IMVI melanoma,37.6 µM
same,GI50,MOLT-4 leukemia,4.54 µM
same,TGI,MOLT-4 leukemia,> 100 µM
same,GI50,HCC-2998 colon,5.25 µM
same,TGI,HCC-2998 colon,22 µM
same,GI50,T-47D breast,2.01 µM
same,TGI,T-47D breast,5.16 µM
same,GI50,CAKI-1 renal,4.48 µM
same,TGI,CAKI-1 renal,20 µM
same,GI50,MDA-MB-231 breast,5.25 µM
same,TGI,MDA-MB-231 breast,20.7 µM
same,GI50,786-0 renal,16 µM
same,TGI,786-0 renal,32.7 µM
same,GI50,RXF 393 renal,3.96 µM
same,TGI,RXF 393 renal,18.7 µM
same,GI50,DU-145 prostate,1.87 µM
same,TGI,DU-145 prostate,4.53 µM
same,GI50,COLO 205 colon,1.61 µM
same,TGI,COLO 205 colon,4.13 µM
same,GI50,SN12C renal,14.2 µM
same,TGI,SN12C renal,40.1 µM
same,GI50,HT29 colon,2.18 µM
same,TGI,HT29 colon,4.68 µM
same,GI50,SK-OV-3 ovarian,2.84 µM
same,TGI,SK-OV-3 ovarian,7.34 µM
same,GI50,NCI/ADR-RES ovarian,21.9 µM
same,TGI,NCI/ADR-RES ovarian,> 100 µM
same,GI50,SF-268 CNS,4.4 µM
same,TGI,SF-268 CNS,33.1 µM
same,GI50,OVCAR-8 ovarian,5.34 µM
same,TGI,OVCAR-8 ovarian,> 100 µM
same,GI50,UACC-62 melanoma,13.3 µM
same,TGI,UACC-62 melanoma,33.4 µM
same,GI50,BT-549 breast,14.9 µM
same,TGI,BT-549 breast,74.6 µM
same,GI50,SNB-19 CNS,15.1 µM
same,TGI,SNB-19 CNS,44 µM
same,GI50,KM12 colon,4.04 µM
same,TGI,KM12 colon,15.7 µM
same,GI50,SR leukemia,23.5 µM
same,TGI,SR leukemia,> 100 µM
same,GI50,PC-3 prostate,24.7 µM
same,TGI,PC-3 prostate,65.3 µM
same,GI50,CCRF-CEM leukemia,5.49 µM
same,TGI,CCRF-CEM leukemia,> 100 µM
same,GI50,OVCAR-3 ovarian,2.32 µM
same,TGI,OVCAR-3 ovarian,5.27 µM
same,GI50,UO-31 renal,15 µM
same,TGI,UO-31 renal,29.7 µM
same,GI50,A498 renal,12.2 µM
same,TGI,A498 renal,30.6 µM
same,GI50,NCI-H226 lung,16.8 µM
same,TGI,NCI-H226 lung,36.7 µM
same,GI50,HCT-15 colon,2.5 µM
same,TGI,HCT-15 colon,> 100 µM
same,GI50,IGROV1 ovarian,3.39 µM
same,TGI,IGROV1 ovarian,12.7 µM
same,GI50,SK-MEL-28 melanoma,9.58 µM
same,TGI,SK-MEL-28 melanoma,27.8 µM
same,GI50,HCT-116 colon,14.2 µM
same,TGI,HCT-116 colon,40.5 µM
same,GI50,A549 NSCLC,2.13 µM
same,TGI,A549 NSCLC,5.26 µM
same,GI50,U251 CNS,1.77 µM
same,TGI,U251 CNS,3.39 µM
same,GI50,NCI-H23 lung,4.25 µM
same,TGI,NCI-H23 lung,21.5 µM
same,GI50,SW-620 colon,3.22 µM
same,TGI,SW-620 colon,14.8 µM
same,GI50,SF-539 CNS,56 µM
same,TGI,SF-539 CNS,> 100 µM
same,GI50,SK-MEL-2 melanoma,5.58 µM
same,TGI,SK-MEL-2 melanoma,17.6 µM
same,GI50,NCI-H522 lung,5.44 µM
same,TGI,NCI-H522 lung,18 µM
same,GI50,HS 578T breast,16.2 µM
same,TGI,HS 578T breast,> 100 µM
